Experimental data from PubChem BioAssay AID2060483 (Molecular Pharmacology Branch, DTP, NCI, 2025).

System: K24384-001-R-PDC complex spheroids, viability
Experiment: Anticancer human tumor K24384-001-R-PDC patient-derived pancreatic adenocarcinoma cell line growth inhibition [GQUAD]
Conditions: for IC50: curve of first compound; for viability, T/C: stronger effect = lower value; active = viability on the fitted dose curve at most 10% of control; inactive = the rest
Method in brief: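 Multi-cell-type spheroids of tumor cells with HUVEC and mesenchymal stem cells, treated with drug combinations. Concentrations descend in half-log steps from near clinical Cmax, or from 10 microM where Cmax is unknown; viability read-out.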

[1] = second compound 0.0316 µM, first compound 0.0316 µM
[2] = second compound 0.0316 µM, first compound 0.1 µM
[3] = second compound 0.0316 µM, first compound 0.316 µM
[4] = second compound 0.0316 µM, first compound 1 µM
[5] = second compound 0.0316 µM, first compound 3.16 µM
[6] = second compound 0.0316 µM, first compound 10 µM
[7] = second compound 0.1 µM, first compound 0.0316 µM
[8] = second compound 0.1 µM, first compound 0.1 µM
[9] = second compound 0.1 µM, first compound 0.316 µM
[10] = second compound 0.1 µM, first compound 1 µM
[11] = second compound 0.1 µM, first compound 3.16 µM
[12] = second compound 0.1 µM, first compound 10 µM
[13] = second compound 0.316 µM, first compound 0.0316 µM
[14] = second compound 0.316 µM, first compound 0.1 µM
[15] = second compound 0.316 µM, first compound 0.316 µM
[16] = second compound 0.316 µM, first compound 1 µM
[17] = second compound 0.316 µM, first compound 3.16 µM
[18] = second compound 0.316 µM, first compound 10 µM
[19] = second compound 1 µM, first compound 0.0316 µM
[20] = second compound 1 µM, first compound 0.1 µM
[21] = second compound 1 µM, first compound 0.316 µM
[22] = second compound 1 µM, first compound 1 µM
[23] = second compound 1 µM, first compound 3.16 µM
[24] = second compound 1 µM, first compound 10 µM
[25] = second compound 3.16 µM, first compound 0.0316 µM
[26] = second compound 3.16 µM, first compound 0.1 µM
[27] = second compound 3.16 µM, first compound 0.316 µM
[28] = second compound 3.16 µM, first compound 1 µM
[29] = second compound 3.16 µM, first compound 3.16 µM
[30] = second compound 3.16 µM, first compound 10 µM
[31] = second compound 10 µM, first compound 0.0316 µM
[32] = second compound 10 µM, first compound 0.1 µM
[33] = second compound 10 µM, first compound 0.316 µM
[34] = second compound 10 µM, first compound 1 µM
[35] = second compound 10 µM, first compound 3.16 µM
[36] = second compound 10 µM, first compound 10 µM
[37] = second compound 0.0316 µM, first compound 0.000999 µM
[38] = second compound 0.0316 µM, first compound 0.00316 µM
[39] = second compound 0.0316 µM, first compound 0.00999 µM
[40] = second compound 0.0316 µM, first compound 0.0999 µM
[41] = second compound 0.1 µM, first compound 0.000999 µM
[42] = second compound 0.1 µM, first compound 0.00316 µM
[43] = second compound 0.1 µM, first compound 0.00999 µM
[44] = second compound 0.1 µM, first compound 0.0999 µM
[45] = second compound 0.316 µM, first compound 0.000999 µM
[46] = second compound 0.316 µM, first compound 0.00316 µM
[47] = second compound 0.316 µM, first compound 0.00999 µM
[48] = second compound 0.316 µM, first compound 0.0999 µM
[49] = second compound 1 µM, first compound 0.000999 µM
[50] = second compound 1 µM, first compound 0.00316 µM
[51] = second compound 1 µM, first compound 0.00999 µM
[52] = second compound 1 µM, first compound 0.0999 µM
[53] = second compound 3.16 µM, first compound 0.000999 µM
[54] = second compound 3.16 µM, first compound 0.00316 µM
[55] = second compound 3.16 µM, first compound 0.00999 µM
[56] = second compound 3.16 µM, first compound 0.0999 µM
[57] = second compound 10 µM, first compound 0.000999 µM
[58] = second compound 10 µM, first compound 0.00316 µM
[59] = second compound 10 µM, first compound 0.00999 µM
[60] = second compound 10 µM, first compound 0.0999 µM
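Note: spheroids exposed to compounds for seven days.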

C=CC(=O)N1CCN(c2nc(=O)n(-c3c(C)ccnc3C(C)C)c3nc(-c4c(O)cccc4F)c(F)cc23)C(C)C1 (stereo not drawn) + CN(C)c1ccc(Nc2c3ccc(NC(=O)CCN4CCCC4)cc3nc3cc(NC(=O)CCN4CCCC4)ccc23)cc1
inactive: viability, T/C [1] 95.5% | viability, T/C [2] 93.2% | viability, T/C [3] 107% | viability, T/C [4] 104% | viability, T/C [5] 99.6% | viability, T/C [6] 93.3% | viability, T/C [7] 100% | viability, T/C [8] 102% | viability, T/C [9] 112% | viability, T/C [10] 121% | viability, T/C [11] 123% | viability, T/C [12] 87.8% | viability, T/C [13] 100% | viability, T/C [14] 101% | viability, T/C [15] 105% | viability, T/C [16] 96.6% | viability, T/C [17] 128% | viability, T/C [18] 98.6% | viability, T/C [19] 101% | viability, T/C [20] 129% | viability, T/C [21] 113% | viability, T/C [22] 115% | viability, T/C [23] 147% | viability, T/C [24] 85.7% | viability, T/C [25] 101% | viability, T/C [26] 100% | viability, T/C [27] 100% | viability, T/C [28] 93% | viability, T/C [29] 110% | viability, T/C [30] 79% | viability, T/C [31] 81.6% | viability, T/C [32] 99.7% | viability, T/C [33] 82.3% | viability, T/C [34] 109% | viability, T/C [35] 89% | viability, T/C [36] 62.2%
> 10000 nM: IC50 (second compound 0.0316 µM) | IC50 (second compound 0.1 µM) | IC50 (second compound 0.316 µM) | IC50 (second compound 1 µM) | IC50 (second compound 3.16 µM) | IC50 (second compound 10 µM)

CC[C@@]1(O)C(=O)OCc2c1cc1n(c2=O)Cc2cc3c(CN(C)C)c(O)ccc3nc2-1 + CN(C)c1ccc(Nc2c3ccc(NC(=O)CCN4CCCC4)cc3nc3cc(NC(=O)CCN4CCCC4)ccc23)cc1
89.7 nM: IC50 (second compound 0.0316 µM)
inactive: viability, T/C [37] 102% | viability, T/C [38] 101% | viability, T/C [39] 101% | viability, T/C [1] 77.5% | viability, T/C [40] 47.8% | viability, T/C [3] 42.5% | viability, T/C [41] 99.8% | viability, T/C [42] 96.7% | viability, T/C [43] 103% | viability, T/C [7] 74.4% | viability, T/C [44] 51.8% | viability, T/C [9] 38.8% | viability, T/C [45] 96.9% | viability, T/C [46] 99.6% | viability, T/C [47] 89.1% | viability, T/C [13] 89.9% | viability, T/C [48] 55.5% | viability, T/C [15] 49.2% | viability, T/C [49] 99.8% | viability, T/C [50] 103% | viability, T/C [51] 96% | viability, T/C [19] 82.4% | viability, T/C [52] 52.4% | viability, T/C [21] 39.3% | viability, T/C [53] 102% | viability, T/C [54] 90.7% | viability, T/C [55] 88.5% | viability, T/C [25] 93.1% | viability, T/C [56] 50.8% | viability, T/C [27] 48.6% | viability, T/C [57] 103% | viability, T/C [58] 103% | viability, T/C [59] 105% | viability, T/C [31] 109% | viability, T/C [60] 57.4% | viability, T/C [33] 38%
155 nM: IC50 (second compound 10 µM)
153 nM: IC50 (second compound 3.16 µM)
125 nM: IC50 (second compound 1 µM)
95.5 nM: IC50 (second compound 0.1 µM)
269 nM: IC50 (second compound 0.316 µM)

COc1cc(C2c3cc4c(cc3C(OC3OC5COC(C)OC5C(O)C3O)C3COC(=O)C23)OCO4)cc(OC)c1O (stereo not drawn) + CN(C)c1ccc(Nc2c3ccc(NC(=O)CCN4CCCC4)cc3nc3cc(NC(=O)CCN4CCCC4)ccc23)cc1
958 nM: IC50 (second compound 0.0316 µM)
710 nM: IC50 (second compound 10 µM)
665 nM: IC50 (second compound 3.16 µM)
762 nM: IC50 (second compound 0.316 µM)
inactive: viability, T/C [1] 105% | viability, T/C [2] 87.1% | viability, T/C [3] 79.1% | viability, T/C [4] 46% | viability, T/C [5] 36.7% | viability, T/C [6] 37.5% | viability, T/C [7] 92% | viability, T/C [8] 99.7% | viability, T/C [9] 76.8% | viability, T/C [10] 46.3% | viability, T/C [11] 40.2% | viability, T/C [12] 41.4% | viability, T/C [13] 94.9% | viability, T/C [14] 91% | viability, T/C [15] 76.1% | viability, T/C [16] 40.9% | viability, T/C [17] 45.3% | viability, T/C [18] 39.5% | viability, T/C [19] 93.2% | viability, T/C [20] 95.3% | viability, T/C [21] 81.2% | viability, T/C [22] 42.9% | viability, T/C [23] 43% | viability, T/C [24] 38.5% | viability, T/C [25] 93.8% | viability, T/C [26] 104% | viability, T/C [27] 67.7% | viability, T/C [28] 46.8% | viability, T/C [29] 36.9% | viability, T/C [30] 37.2% | viability, T/C [31] 94.3% | viability, T/C [32] 105% | viability, T/C [33] 60.9% | viability, T/C [34] 59.1% | viability, T/C [35] 30.8% | viability, T/C [36] 46.3%
807 nM: IC50 (second compound 1 µM)
836 nM: IC50 (second compound 0.1 µM)

Cn1ncnc1[C@H]1c2n[nH]c(=O)c3cc(F)cc(c23)N[C@@H]1c1ccc(F)cc1 + CN(C)c1ccc(Nc2c3ccc(NC(=O)CCN4CCCC4)cc3nc3cc(NC(=O)CCN4CCCC4)ccc23)cc1
> 316 nM: IC50 (second compound 0.0316 µM) | IC50 (second compound 0.1 µM) | IC50 (second compound 0.316 µM) | IC50 (second compound 1 µM) | IC50 (second compound 3.16 µM) | IC50 (second compound 10 µM)
inactive: viability, T/C [37] 101% | viability, T/C [38] 82.2% | viability, T/C [39] 108% | viability, T/C [1] 81.4% | viability, T/C [40] 80.9% | viability, T/C [3] 86.1% | viability, T/C [41] 82.9% | viability, T/C [42] 125% | viability, T/C [43] 92.2% | viability, T/C [7] 81.2% | viability, T/C [44] 107% | viability, T/C [9] 93% | viability, T/C [45] 85.1% | viability, T/C [46] 89.5% | viability, T/C [47] 105% | viability, T/C [13] 70% | viability, T/C [48] 79.7% | viability, T/C [15] 77.3% | viability, T/C [49] 90.4% | viability, T/C [50] 91.2% | viability, T/C [51] 88% | viability, T/C [19] 87.1% | viability, T/C [52] 100% | viability, T/C [21] 69.4% | viability, T/C [53] 101% | viability, T/C [54] 85.7% | viability, T/C [55] 77.8% | viability, T/C [25] 92.3% | viability, T/C [56] 91.7% | viability, T/C [27] 65.5% | viability, T/C [57] 88.2% | viability, T/C [58] 75.1% | viability, T/C [59] 82.9% | viability, T/C [31] 118% | viability, T/C [60] 110% | viability, T/C [33] 54.8%
